# Measured values taken from US11542475B2, “3D microphysiologic system” (Northwestern University, priority 2014, dated 2023).
# Legend:
# [1] = system: OVGP1 expression in human fallopian epithelium; test: OVGP1 immunoblot of cultured fallopian epithelium lysate; assay type: cell-based
# Experimental: (§1) Human fallopian tissue was obtained from routine hysterectomies from women in their reproductive years (ages range from 26 to 50 years old) and who had not undergone exogenous hormonal treatment for at least three months prior to surgery. Informed consent was obtained from each patient and approval granted by the ethics committee of the Northwestern University. Human fallopian tissue was kept in the DMEM/F12 medium with 10% FBS on ice and processed within 24 hours. The tissue was washed with warm PBS solution two times before being transferred into warm dissection medium (Liebowitz 15 with 0.5% P/S and 10% FBS). After cleaning connective tissue from outside of the fallopian tissue, the fallopian tube was cut open and the inner epithelia layer was mechanically dissected using forceps. […] Tissue was cultured on 0.4 μm pore Millicell inserts (PICM03050, EMD Millipore Co, Billerica, Mass., USA) twelve-well plates with culture medium in a 37° C. and 5% CO2 incubator. Estrogen (E2) and progesterone (P4) used in tissue culture experiments were purchased from Sigma (St. Louis, Mo.).
# (§2) Cultured human fallopian epithelia layers were homogenized with a minipestle in ice-cold lysis buffer (20 mM Tris-HCl, pH 8.0, 137 mM NaCl, 10% glycerol, 1% NP-40, 2 mM EDTA). Lysate normalized for protein content was loaded into NuPAGE 4-12% gradient Bis-Tris precast SDS-PAGE gels and transferred to a nitrocellulose membrane (Life Technologies, Carlsbad, Calif., USA). Blots were probed by polyclonal anti-OVGP1 antibody (LsBio, Cambridge, Mass.) overnight in 4° C. followed by anti-rabbit secondary antibody conjugated to horseradish peroxidase (Zymed, San Francisco, Calif.). Proteins were detected by ECL primer (GE HealthCare Life Sciences, Pittsburgh, Pa.) and exposed to X-ray film (Kodak, Rochester, N.Y.). The same blot was stripped using stripping buffer (Thermo Scientific, Hanover Park, Ill.) and re-probed with monoclonal anti-α-tubulin (Sigma, St. Louis, Mo.) followed by an anti-mouse secondary antibody conjugated to horseradish peroxidase. NIH ImageJ Imaging Software was used to quantify the density of western blot bands. Conditioned medium from fallopian epithelia cultures was collected and probed via western blot analysis using a polyclonal anti-hIGF1 antibody (abcam, Cambridge, Mass.). The blot was detected by the same method described above.
# [2] = system: IGF1 secretion by human fallopian epithelium; test: hIGF1 immunoblot of fallopian epithelium conditioned medium; assay type: cell-based
# Experimental: as §1, §2
# Fallopian epithelia layers cultured on […] inserts were pre-cultured in the alpha-MEM with 0.3% BSA, ITS and 1% P/S medium for two days. Cell culture medium was collected for the glucose ELISA assay (abcam, Cambridge, Mass.). Medium was diluted 1:500 and ELISA was performed according to the protocol provided by the kit. […]
# [3] = system: human fallopian tube epithelium; test: Fallopian epithelia cilia beating quantification; assay type: cell-based; settings: 7 days culture; P4 added to E2
# Experimental: Human fallopian tissue was obtained from routine hysterectomies from women in their reproductive years (ages range from 26 to 50 years old) and who had not undergone exogenous hormonal treatment for at least three months prior to surgery. Informed consent was obtained from each patient and approval granted by the ethics committee of the Northwestern University. Human fallopian tissue was kept in the DMEM/F12 medium with 10% FBS on ice and processed within 24 hours. The tissue was washed with warm PBS solution two times before being transferred into warm dissection medium (Liebowitz 15 with 0.5% P/S and 10% FBS). After cleaning connective tissue from outside of the fallopian tissue, the fallopian tube was cut open and the inner epithelia layer was mechanically dissected using forceps. […]
# Fallopian epithelia layers were cultured in estradiol (E2) 1 nM, E2 1 nM+progesterone (P4) 10 nM, E2 0.1 nM+P4 50 nM or with solvent only negative control for 7 days. Cilia beating movies were acquired using an Andor Spinning Disk Confocal with 5 ms exposure time and 5 ms readout time. […] The Multiple Kymograph plugin for the NIH ImageJ software was used to quantify cilia beating frequency. In each movie, 8 clusters of cilia were picked for the cilia beating quantification.
# [4] = system: progesterone receptor (PR) expression in human fimbriae; test: 3D human fimbriae culture: progesterone receptor immunohistochemistry; assay type: cell-based; settings: 1 nM and 10 nM E2
# Experimental: (§3) Tissues were micro-dissected in alpha-MEM (Gibco, Carlsbad, Calif.) with 1% penicillin-streptomycin (Invitrogen, Carlsbad, Calif.). Individual fimbriae were separated into ˜50 mm^3 pieces. A portion of the tissue was fixed in 2% paraformaldehyde for use as an uncultured control. For optimization studies, fimbriae were cultured without matrix, encapsulated in 0.5% alginate, or encapsulated in 0.5% alginate with 1 mg/ml collagen and 0.1% fibronectin, as previously described for murine cultures (King et al. J Vis Exp. 2011.; herein incorporated by reference in its entirety). For subsequent treatments, 0.5% alginate encapsulated fimbriae were randomly assigned to treatment groups, with at least five fimbriae per condition, per patient, in a 24-well plate containing alpha-MEM and 1% penicillin-streptomycin. […] Prior to fixation, fimbriae were labeled with 10 μM bromodeoxyurine (BrdU, Sigma-Aldrich) for 24 hours to denote proliferating cells. Fimbriae cultures were fixed (2% paraformaldehyde) followed by dehydration in ethanol and xylene, and embedment in paraffin.
# Sections (5 μm) were cut and stained via hematoxylin and eosin for morphological analysis or immunohistochemistry was performed to localize proteins of interest as previously described (King et al. Endocr Relat Cancer. 2011. 18:627-42.; herein incorporated by reference in its entirety). […]
# VEGF-A = test: ELISA of fallopian culture medium: VEGF-A; assay type: cell-based, human; settings: 10 nM E2, 7 days, n=7; not significantly altered
# Experimental: as §3, with “Fimbriae cultures were fixed (2% paraformaldehyde) followed by dehydration in ethanol and xylene, and embedment in paraffin.” left out
# IL8, VEGF-A, and FGF2 were detected in fallopian culture medium by enzyme-linked immunosorbent assay for human IL8 (EMD Millipore, Billerica, Mass., USA), VEGF-A (RayBiotech, GA, USA), or FGF2 (Abcam) respectively using the manufacturers' protocols. […] Results were normalized to total protein content as determined by western blotting and Ponceau staining to account for difference in tissue size between treatment groups. […]
# [5] = 28 days stepwise E2 and P4 treatment, P4 in the presence of E2
compound,measurement,setting,value
"C[C@]12CC[C@@H]3c4ccc(O)cc4CC[C@H]3[C@@H]1CC[C@@H]2O [E2, estradiol]",OVGP1 expression in the fallopian lysate,"[1]; 7 days culture, P4 added to E2",induction
same,OVGP1 expression,[1]; [5],stimulated
same,IGF1 secretion,"[2]; 7 days culture, 1 nM E2, P4 added to E2",induced
same,IGF1 secretion,[2]; [5],stimulated
same,cilia beating frequency (CBF),[3],significantly increased
same,progesterone receptor (PR) expression compared to vehicle control,[4],induction
same,VEGF-A increase compared to vehicle control,VEGF-A,140%±75%
